Assay results: PubChem BioAssay (NCI)
Values joined by “and” are separate entries in the source; they are usually repeats but may differ in a detail not shown here. Equal entries are not always repeated.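 Exposure lasted 48 hours, with cells grown in 96-well plates and compounds tested at five concentrations. GI50 marks 50% less growth. TGI marks complete inhibition of growth.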

Columns and labels:
Assay in all cases: NCI-60 cell line screen, 48 h
ACHN renal = system: ACHN renal
CCRF-CEM leukemia = system: CCRF-CEM leukemia
HT29 colon = system: HT29 colon
MDA-MB-435 = system: MDA-MB-435
PC-3 prostate = system: PC-3 prostate
RXF 393 renal = system: RXF 393 renal
SF-539 CNS = system: SF-539 CNS
SK-MEL-2 melanoma = system: SK-MEL-2 melanoma
SNB-75 CNS = system: SNB-75 CNS
UACC-257 melanoma = system: UACC-257 melanoma

SMILES	GI50 (ACHN renal)	TGI (ACHN renal)	GI50 (CCRF-CEM leukemia)	TGI (CCRF-CEM leukemia)	GI50 (HT29 colon)	TGI (HT29 colon)	GI50 (MDA-MB-435)	TGI (MDA-MB-435)	GI50 (PC-3 prostate)	TGI (PC-3 prostate)	GI50 (RXF 393 renal)	TGI (RXF 393 renal)	GI50 (SF-539 CNS)	TGI (SF-539 CNS)	GI50 (SK-MEL-2 melanoma)	TGI (SK-MEL-2 melanoma)	GI50 (SNB-75 CNS)	TGI (SNB-75 CNS)	GI50 (UACC-257 melanoma)	TGI (UACC-257 melanoma)
CC1(/C=C/c2ccc(-c3ccccc3)cc2)CCn2cnc3ncnc(c32)N1O (stereo unspecified)	0.281 µM	14.2 µM	0.153 µM	41.5 µM	0.526 µM	41.7 µM	0.646 µM	39.6 µM	0.57 µM	34.8 µM	0.88 µM	40.3 µM	0.388 µM	5.55 µM	1.42 µM	41.2 µM	0.387 µM	14.5 µM	0.445 µM	25.3 µM
CCN(Cc1c(F)cccc1C(F)(F)F)c1ccc(CO)c(Cl)c1	15 µM	28.6 µM	15.7 µM	36.1 µM	2.99 µM	17.7 µM	14.2 µM	28.3 µM	12.3 µM	25.3 µM	12.6 µM	28.5 µM	15.6 µM	29.4 µM	3.33 µM	24.5 µM	12.5 µM	26.4 µM	< 0.0407 µM	0.187 µM
CC(=O)OCc1cc[c]([Hg][Cl])o1	1.81 µM	3.44 µM	2.08 µM	8.85 µM	5.61 µM	26.3 µM	3.54 µM	15.5 µM	11 µM	24.2 µM	5.12 µM	17.4 µM	4.97 µM	21.2 µM	16.7 µM	32.2 µM	12.8 µM	51.4 µM	13.5 µM	26.8 µM
Cn1cc(-c2[nH]c3cc(NC(=O)[C@H](N)C4CCCCC4)cc4c3c2C=NNC4=O)cn1	0.419 µM and 1.06 µM	8.35 µM and > 10 µM	0.0345 µM and 0.056 µM	0.507 µM and > 3.89 µM	1.44 µM and 0.994 µM	8.24 µM and > 10 µM	0.245 µM and 0.286 µM	1.23 µM and 1.28 µM	0.72 µM and 1.96 µM	18.3 µM and > 10 µM	0.104 µM and 0.187 µM	0.502 µM and 0.745 µM	0.118 µM and 0.109 µM	0.67 µM and 0.628 µM	0.262 µM	> 10 µM	0.339 µM and 0.311 µM	1.88 µM and 1.84 µM	4.16 µM and > 6.97 µM	18.8 µM and > 10 µM
CC(C)Cc1cc(-c2cccn2C)c(C#N)c(=O)[nH]1	> 100 µM	> 100 µM	23.4 µM	> 100 µM	> 100 µM	> 100 µM	> 100 µM	> 100 µM	> 100 µM	> 100 µM	> 100 µM	> 100 µM	> 100 µM	> 100 µM	> 100 µM	> 100 µM	40.1 µM	> 100 µM	> 100 µM	> 100 µM
S=C1NC(c2ccccc2)NC(c2ccccc2)S1 (stereo unspecified)		> 100 µM		8.38 µM		> 100 µM		> 100 µM		> 100 µM		> 100 µM		> 100 µM		> 100 µM		> 100 µM		> 100 µM
OC(CBr)C(O)C(O)C(O)CBr (stereo unspecified)		> 100 µM		> 100 µM		> 100 µM		> 100 µM		> 100 µM		> 100 µM		> 100 µM		> 100 µM	13 µM and 51 µM	68.4 µM and > 100 µM		> 100 µM
C=C1CC2(CC(c3ccccc3C)OC(c3ccccc3C)C2)OC1=O (stereo unspecified)		6.06 µM		5.75 µM		3.53 µM		3.13 µM		5.78 µM		3.88 µM		3.1 µM		4.13 µM		11.6 µM		3.66 µM
COc1cc2cc(C(=O)Nc3ccccc3)c(N)nc2cc1OC	39.4 µM	> 100 µM	35.9 µM	> 100 µM	51.5 µM	> 100 µM	48.7 µM	> 100 µM	31.2 µM	> 100 µM	23.7 µM	> 100 µM	71.6 µM	> 100 µM	69.1 µM	> 100 µM	29.2 µM	> 100 µM	39.4 µM	> 100 µM
N/C(=N/O)NOCCC(N)C(=O)O (stereo unspecified)	> 100 µM	> 100 µM	> 100 µM	> 100 µM	> 100 µM	> 100 µM	> 100 µM	> 100 µM	> 100 µM	> 100 µM	> 100 µM	> 100 µM	> 100 µM	> 100 µM	> 100 µM	> 100 µM	> 100 µM	> 100 µM	> 100 µM	> 100 µM
Cc1ccccc1N=C(c1ccccc1)C1C(=O)c2ccccc2C1=O	19 µM	62.4 µM	12.8 µM	62.3 µM	13.7 µM	> 100 µM	3.44 µM	14.8 µM	18.9 µM	62 µM	7.37 µM	> 100 µM	12.1 µM	> 100 µM	3.32 µM	59.8 µM	23.4 µM	> 100 µM	18 µM	96.6 µM
COc1ccc(/C=C2\CCC(C)(CN(C)C)C2=O)cc1Br (stereo unspecified)		> 62.6 µM		> 80.5 µM		49.6 µM		44 µM		39.7 µM		35.7 µM		43.5 µM		36.9 µM		76.3 µM		36.6 µM
COc1ccc(N2CCN(c3nc(-c4ccccn4)nc4sc5c(c34)CCCCCC5)CC2)cc1	5.09 µM	> 100 µM	4.32 µM	> 100 µM	5.06 µM	> 100 µM	5.49 µM	> 100 µM	3.31 µM	> 100 µM	> 100 µM	> 100 µM	66.9 µM	> 100 µM	18.3 µM	> 100 µM	26.1 µM	> 100 µM	7.22 µM	> 100 µM
CNC(=O)c1cc(Oc2ccc(NC(=O)Nc3ccc(Cl)c(C(F)(F)F)c3)cc2)ccn1	3.22 µM and 3.45 µM and 2.64 µM	> 10 µM and 12 µM and 12.1 µM	3.18 µM and 4.35 µM and 2.27 µM	> 10 µM and > 100 µM and 16.7 µM	2.54 µM and 2.45 µM and 2.36 µM	> 10 µM and 8.39 µM and 9.02 µM	1.96 µM and 1.82 µM and 1.84 µM	5.74 µM and 4.33 µM and 4.92 µM	2.2 µM and 2.6 µM and 2.14 µM	8.51 µM and 8.9 µM and 8.57 µM	3.58 µM and 2.88 µM and 3.41 µM	> 10 µM and 9.26 µM and 9.86 µM	1.97 µM and 2.32 µM and 1.62 µM	> 10 µM and 9.07 µM and 4.82 µM	1.16 µM and 1.31 µM and 1.77 µM	3.57 µM and 2.93 µM and 6.22 µM	1.86 µM and 2.65 µM and 2.73 µM	> 10 µM and 8.98 µM and 8.78 µM	2.14 µM and 1.99 µM and 2.2 µM	6.41 µM and 5.16 µM and 6.15 µM
Cc1cccc(Nc2ncc(-c3ccccc3)o2)c1	> 25 µM	> 25 µM	> 25 µM	> 25 µM	> 25 µM	> 25 µM	> 25 µM	> 25 µM	> 25 µM	> 25 µM	> 25 µM	> 25 µM	> 25 µM	> 25 µM	> 25 µM	> 25 µM	> 25 µM	> 25 µM	> 25 µM	> 25 µM
COC1C[C@H](O[C@@H]2C[C@H](O[C@@H]3C[C@H](O[C@@H]4C(=O)c5c(cc6cc(O[C@H]7C[C@@H](O[C@H]8C[C@@H](O)[C@H](O)C(C)O8)[C@H](O)C(C)O7)c(C)c(O)c6c5O)C[C@H]4C(OC)C(=O)[C@@H](O)[C@@H](C)O)OC(C)[C@H]3O)OC(C)[C@@H]2O)OC(C)[C@@H]1O (stereo partly specified)	0.252 µM	31.1 µM	0.127 µM	> 32.5 µM	0.0974 µM	> 32.5 µM	0.0949 µM	0.45 µM	0.123 µM	> 32.5 µM	0.094 µM	0.525 µM	0.0736 µM	0.316 µM	0.068 µM	0.165 µM	0.0622 µM	0.442 µM	0.0825 µM	0.262 µM
Fc1ccc(Nc2ccnc(N3CCN(c4ccnc5cc(Cl)ccc45)CC3)n2)cc1	2.5 µM	> 100 µM	2.74 µM	10.5 µM	1.46 µM	3.14 µM	1.93 µM	4.92 µM	1.73 µM	8.33 µM	3.39 µM	72.3 µM	2.95 µM	10.3 µM	2.16 µM	4.07 µM	2.43 µM	> 100 µM	1.95 µM	4.27 µM
C=C1C(=O)O[C@H]2[C@H]1CC/C(COC(=O)NCCc1ccc(Br)cc1)=C\CC[C@@]1(C)O[C@@H]21	1.32 µM	2.78 µM	0.279 µM	0.847 µM	1.32 µM	3.38 µM	1.28 µM	2.81 µM	1.73 µM	3.32 µM	1.2 µM	2.68 µM	1.46 µM	2.88 µM	1.58 µM	3.17 µM	1.2 µM	2.45 µM	1.63 µM	3.09 µM
Nc1[nH]c(=S)[nH]c(=O)c1N=Nc1c(Br)cc(S(N)(=O)=O)cc1Br		> 100 µM		> 100 µM		> 100 µM		> 100 µM		> 100 µM		> 100 µM		> 100 µM		> 100 µM		> 100 µM		> 100 µM
O=C(Nc1n[nH]c2cc(-c3ccc(F)cc3)ccc12)C1CC1	16.8 µM	> 25 µM	8.77 µM	> 25 µM	7.9 µM	> 25 µM	2.31 µM	12.1 µM	7.98 µM	> 25 µM	5.73 µM	> 22.6 µM	11.2 µM	> 25 µM	7.16 µM	> 21.9 µM	11.1 µM	> 25 µM	14.1 µM	> 25 µM
NS(=O)(=O)c1ccc(NC(=O)Nc2cccc3ccccc23)cc1		> 100 µM		> 100 µM		> 100 µM		> 100 µM		44 µM		> 100 µM		50.8 µM		> 100 µM		57.7 µM		> 100 µM
c1ccc(OCC[P+](c2ccccc2)(c2ccccc2)c2ccccc2)cc1	8.47 µM	> 81.9 µM	0.981 µM	> 41.4 µM	0.308 µM	10.9 µM	0.433 µM	4.31 µM	0.535 µM	11.6 µM	4.19 µM	16 µM	1.89 µM	13.1 µM	1.06 µM	10.8 µM	0.721 µM	5.99 µM	0.425 µM	5.41 µM
Cc1ccc2c(c1)n([O-])c(C(F)(F)F)c(C(=O)c1ccco1)[n+]2=O	0.217 µM	1 µM	0.0743 µM	0.859 µM	2.07 µM	20.7 µM	0.744 µM	2.65 µM	0.306 µM	4.82 µM	0.622 µM	2.91 µM	0.918 µM	2.67 µM	4.4 µM	34.7 µM	1.4 µM	6.07 µM	0.924 µM	3.12 µM
CN(N=O)N1C(=O)SCC(c2ccccc2)(c2ccccc2)C1=O		> 100 µM		> 100 µM		> 100 µM		73.3 µM		> 100 µM		59.2 µM		65.5 µM		54.5 µM		82.2 µM		> 100 µM
O=C(Nc1ccn(C2CCC(COC(c3ccccc3)(c3ccccc3)c3ccccc3)O2)c(=O)n1)c1ccccc1 (stereo unspecified)		9.74 µM		9.04 µM		6.09 µM		10.6 µM		5.71 µM		11.1 µM		7 µM		8.71 µM		8.35 µM		17.9 µM
O=C(Nc1ccc(-c2cn3ccccc3n2)cc1)c1cc(Br)ccc1O		> 100 µM		> 100 µM		> 100 µM		> 100 µM		> 100 µM		> 100 µM		> 100 µM		> 100 µM		> 100 µM		> 100 µM
Nc1cc2c3ccccc3ccc2c2ccccc12	> 100 µM	> 100 µM	8 µM	> 100 µM	> 100 µM	> 100 µM	> 56.1 µM	> 100 µM	7.78 µM	> 100 µM	> 100 µM	> 100 µM	> 51.2 µM	> 100 µM	> 100 µM	> 100 µM	> 30.5 µM	> 100 µM	> 100 µM	> 100 µM
COc1ccc(C2CC(=O)Nc3c2c(C)nn3-c2nc3ccccc3[nH]2)cc1OC (stereo unspecified)	4.45 µM	34.1 µM	1.62 µM	> 96.3 µM	5.66 µM	40 µM	3.25 µM	18.3 µM	4.27 µM	63.6 µM	2.19 µM	5.69 µM	2.85 µM	9.48 µM	4.85 µM	21.9 µM	3.46 µM	> 56.1 µM	6.46 µM	55.4 µM
